In article PMC12446003, “Pharmacological characterization of linaprazan glurate (X842), a novel potassium-competitive acid blocker, in vitro and in vivo” (Frontiers in Pharmacology, 2025):
Like-named read-outs stand apart in the source and are kept apart here.

How the values were obtained:
[1] = Pharmacokinetic assessment of X842 in dogs (IV, single oral, repeated oral); type: in vivo; conditions: beagle, dog, plasma, analyte as labelled; for half-life at 1 day: read-out: t1/2 Day 1 (converted); for half-life at 7 day: read-out: t1/2 Day 7 (converted); for half-life: read-out: t1/2 (converted)
Protocol: (§1) Pharmacokinetic assessments were conducted by Shanghai Medicilon Inc. Using C18 solid-phase extraction (Shimadzu UFLC-20A, ACE 3, C18, 3.0 µm, 150 × 4.6 mm; Shimadzu, Japan) with the following conditions: mobile phase A: 1 M ammonium acetate in water, mobile phase B: 100% acetonitrile; gradient 0–5 min: 100% A, 5–30 min: 85% A, 35–63 min: 75% A, 63–65 min: 55% A, 65–70 min: 0% A, 72–87 min: 100% A; flow rate 0.7 mL/min; column temperature 30 °C ([Weidof and Covey, 1992]). […] Bioavailability was calculated as F (%) = (Doseiv × AUCpo(0–24h)) ÷ (Dosepo × AUCiv (0–24h)) × 100%, where “po” represents oral administration and “iv” represents intravenous administration.
Male and female Beagle dogs weighing around 9 kg were arbitrarily selected for testing. Food and water were provided ad libitum, except during overnight fasting (15–16 h) prior to oral drug administration ([Adebowale et al., 2002]). X842 were dissolved in the PEG400/ethanol/Solutol/water mixture (40:10:5:45% v/v) and methane sulfonic acid was used to adjust to pH 3, yielding solutions with concentrations of 0.3 mg/mL, 1.2 mg/mL, and 4.8 mg/mL for oral administration. There were four rounds of drug administration. One week was required between the rounds of testing according to the conditions for of animal welfare maintenance. For IV injection, a drug solution with a concentration of 0.3 mg/mL was prepared and filtered through a 0.22-μm filter. Blood samples were collected via the jugular vein using the same procedures as were used for the rat experiments. Following centrifugation, the plasma was transferred to clean tubes and stored at −80 °C until further analysis. All animals were euthanized by phenobarbital injection after the final blood sample collection. Pharmacokinetic assessments were conducted as described in 2.2.1.

[2] = Pharmacokinetic assessment of X842 in rats (IV, single oral, repeated oral); type: in vivo, Sprague-Dawley rats; conditions: Sprague-Dawley, rat, plasma; for AUC(0-t): read-out: AUC(0–24h); for half-life: read-out: t1/2 (converted)
Protocol: Male and female Sprague-Dawley rats weighing approximately 150 g were housed individually with a 12-h light/dark cycle. Food and water were provided ad libitum, except during overnight fasting (10–16 h) prior to oral drug administration, as described previously ([Kotegawa et al., 1998]; [Kotegawa et al., 2002]). To investigate the absorption kinetics of X842 (prodrug) and linaprazan (metabolite, parent drug) in rats after oral and intravenous administration of X842, X842 were dissolved in 5% Solutol HS15/45% ethanol/10% PEG400/40% saline, and methane sulfonic acid was used to adjust to pH 3, yielding solutions with concentrations of 0.6 mg/mL, 2.4 mg/mL, and 9.6 mg/mL for oral administration. For intravenous (IV) injection, a drug solution (0.6 mg/mL) was prepared and filtered through a 0.22-μm filter. Blood samples were collected via the jugular vein of conscious rats (without intubation, narcotics, or antibiotics) prior to dosing and at 0.083, 0.25, 0.5, 1, 2, 4, 6, 8, and 24 h after dosing. Blood samples were placed into tubes containing sodium heparin and centrifuged at 3,500 rpm for 10 min at 4 °C. Following centrifugation, the plasma was transferred to clean tubes and stored at −80 °C until further analysis. All animals were euthanized by carbon dioxide (CO2) inhalation after the final blood sample collection.
as §1

[3] = 1.2 mg/kg, female dogs, repeat oral X842, Day 1
[4] = 1.2 mg/kg, female dogs, repeat oral X842, Day 7
[5] = female dogs, intravenous X842 0.3 mg/kg
[6] = female dogs, single oral X842 0.3 mg/kg
[7] = female dogs, single oral X842 1.2 mg/kg
[8] = female dogs, single oral X842 4.8 mg/kg
[9] = male dogs, intravenous X842 0.3 mg/kg
[10] = male dogs, single oral X842 0.3 mg/kg
[11] = male dogs, single oral X842 1.2 mg/kg
[12] = male dogs, single oral X842 4.8 mg/kg
[13] = female, iv, 0.6 mg/kg, female rats, intravenous X842, plasma analyte as labelled
[14] = female, po, 0.6 mg/kg, female rats, single oral X842 0.6 mg/kg, analyte as labelled
[15] = female, po, 2.4 mg/kg, female rats, single oral X842 2.4 mg/kg, analyte as labelled
[16] = female, po, 9.6 mg/kg, female rats, single oral X842 9.6 mg/kg, analyte as labelled
[17] = male, iv, 0.6 mg/kg, male rats, intravenous X842, plasma analyte as labelled
[18] = male, po, 0.6 mg/kg, male rats, single oral X842 0.6 mg/kg, analyte as labelled
[19] = male, po, 2.4 mg/kg, male rats, single oral X842 2.4 mg/kg, analyte as labelled
[20] = male, po, 9.6 mg/kg, male rats, single oral X842 9.6 mg/kg, analyte as labelled

**Q.** Which results are given for `Cc1cccc(C)c1CNc1cc(C(=O)NCCO)cn2c(C)c(C)nc12` [linaprazan]?
**A.** Cmax at 1 day [1, 3]: 67.2 ± 4.7 ng/mL; half-life at 1 day [1, 3]: 3.2 ± 0.42 h; Cmax at 7 day [1, 4]: 65 ± 4.7 ng/mL; half-life at 7 day [1, 4]: 5.1 ± 1.1 h; half-life at 1 day ([1]; 1.2 mg/kg, male dogs, 7 days of repeat oral X842, Day 1): 2.8 ± 0.2 h; half-life at 7 day ([1]; 1.2 mg/kg, male dogs, 7 days of repeat oral X842, Day 7): 3.8 ± 0.4 h; Cmax at 1 day ([1]; 1.2 mg/kg, male dogs, repeat oral X842, Day 1): 82.8 ± 56.5 ng/mL; Cmax at 7 day ([1]; 1.2 mg/kg, male dogs, repeat oral X842, Day 7): 67.5 ± 23.9 ng/mL; Cmax [1, 5]: 30.6 ± 6.2 ng/mL; half-life [1, 5]: 1.6 ± 0.2 h; Cmax [1, 6]: 10.4 ± 1.4 ng/mL; half-life [1, 6]: 2.1 ± 0.4 h; Cmax [1, 7]: 67.2 ± 4.7 ng/mL; half-life [1, 7]: 3.2 ± 0.42 h; Cmax [1, 8]: 535 ± 149 ng/mL; half-life [1, 8]: 2.2 ± 0.9 h; Cmax [1, 9]: 45.5 ± 21.4 ng/mL; half-life [1, 9]: 1.5 ± 0.25 h; Cmax [1, 10]: 15.8 ng/mL; half-life [1, 10]: 2.2 ± 0.7 h; Cmax [1, 11]: 82.8 ± 56.5 ng/mL; half-life [1, 11]: 2.8 ± 0.2 h; Cmax [1, 12]: 851 ± 116 ng/mL; half-life [1, 12]: 2.6 ± 0.2 h; AUC(0-t) ([1]; female, iv, 0.3 mg/kg, female dogs, intravenous X842 0.3 mg/kg, read-out: AUC(0-24h)): 106 ± 13.9 ng·h/mL; AUC(0-t) ([1]; female, po, 0.3 mg/kg, female dogs, single oral X842 0.3 mg/kg, read-out: AUC(0-24h)): 48.7 ± 7.4 ng·h/mL; AUC(0-t) ([1]; female, po, 1.2 mg/kg, female dogs, repeat oral X842, Day 1, read-out: AUC(0-24h) Day 1): 412 ± 166 ng·h/mL; AUC(0-t) ([1]; female, po, 1.2 mg/kg, female dogs, repeat oral X842, Day 7, read-out: AUC(0-24h) Day 7): 508 ± 41.8 ng·h/mL; AUC(0-t) ([1]; female, po, 1.2 mg/kg, female dogs, single oral X842 1.2 mg/kg, read-out: AUC(0-24h)): 412 ng·h/mL; AUC(0-t) ([1]; female, po, 4.8 mg/kg, female dogs, single oral X842 4.8 mg/kg, read-out: AUC(0-24h)): 2920 ng·h/mL; AUC(0-t) ([1]; male, iv, 0.3 mg/kg, male dogs, intravenous X842 0.3 mg/kg, read-out: AUC(0-24h)): 170 ± 26.2 ng·h/mL; AUC(0-t) ([1]; male, po, 0.3 mg/kg, male dogs, single oral X842 0.3 mg/kg, read-out: AUC(0-24h)): 77.8 ± 66.8 ng·h/mL; AUC(0-t) ([1]; male, po, 1.2 mg/kg, male dogs, repeat oral X842, Day 1, read-out: AUC(0-24h) Day 1): 436 ± 272 ng·h/mL; AUC(0-t) ([1]; male, po, 1.2 mg/kg, male dogs, repeat oral X842, Day 7, read-out: AUC(0-24h) Day 7): 439 ± 81.6 ng·h/mL; AUC(0-t) ([1]; male, po, 1.2 mg/kg, male dogs, single oral X842 1.2 mg/kg, read-out: AUC(0-24h)): 436 ng·h/mL; AUC(0-t) ([1]; male, po, 4.8 mg/kg, male dogs, single oral X842 4.8 mg/kg, read-out: AUC(0-24h)): 4850 ng·h/mL; Cmax [2, 13]: 80.5 ± 17.7 ng/mL; AUC(0-t) [2, 13]: 133 ± 11.1 ng·h/mL; half-life [2, 13]: 2 ± 0.4 h; Cmax [2, 14]: 13.5 ± 5.8 ng/mL; AUC(0-t) [2, 14]: 67.6 ± 23.7 ng·h/mL; half-life [2, 14]: 3.7 ± 1.6 h; Cmax [2, 15]: 72.5 ± 5.6 ng/mL; AUC(0-t) [2, 15]: 382 ± 44.9 ng·h/mL; half-life [2, 15]: 2.7 ± 0.4 h; Cmax [2, 16]: 336 ± 69.4 ng/mL; AUC(0-t) [2, 16]: 3020 ng·h/mL; half-life [2, 16]: 2.6 ± 0.1 h; Cmax [2, 17]: 114 ± 17 ng/mL; half-life ([2]; male, iv, 0.6 mg/kg, male rats, intravenous X842, plasma analyte as labelled (prodrug X842 / parent linaprazan)): 1.4 ± 0.1 h; AUC(0-t) [2, 17]: 114 ± 7.1 ng·h/mL; Cmax [2, 18]: 6.2 ± 1.7 ng/mL; AUC(0-t) [2, 18]: 22.1 ± 9.9 ng·h/mL; half-life [2, 18]: 2.2 ± 1 h; Cmax [2, 19]: 32 ± 9.7 ng/mL; AUC(0-t) [2, 19]: 134 ± 43.3 ng·h/mL; half-life [2, 19]: 2.6 ± 0.5 h; Cmax [2, 20]: 128 ± 17.5 ng/mL; AUC(0-t) [2, 20]: 576 ± 46.1 ng·h/mL; half-life [2, 20]: 3.1 ± 0.3 h
